Experimental data from patent US10653141B2, “Compositions and methods for attracting mosquitoes and repelling sand flies” (priority 2014, dated 2020).

Columns and labels:
Phlebotomus dubosqui = test: Dual-choice bioassay, treated vs control chamber; format: in vivo; conditions: 1,200 mg DEET
Source text: Through a series of dual-choice bioassays, a new combination of plant volatile semiochemicals was identified, which acts as a powerful repellent against two vector species of sand flies, Lutzomyia longipalpis and Phlebotomus dubosqui (vectors of leishmaniasis). […] Female sand flies repelled from host environments will be less likely to obtain a blood meal, reducing egg production, while aggregation by males, which typically occurs near hosts, will also be impeded by the presence of a repellent. Both of these interventions will lead to a decrease in reproductive success within the treated area, and over time, a reduction in sand fly population size.
Vectrax can also be deployed as a vehicle for the controlled release of repellent plant volatiles, to manage sand fly populations. […] This plant-based repellent formulation could reduce sand fly populations in a number of ways. Female sand flies repelled from host environments by Vectrax will be less likely to obtain a blood meal, reducing egg production, while lek formation by males, which typically occurs near hosts, will also be impeded by the presence of a repellent. Both of these interventions will lead to a decrease in reproductive success within the treated area, and over time, a reduction in sand fly population size.

mosquitoes = test: Laboratory and mesocosm trials of Vectrax bait blended with insecticide; format: in vivo
Source text: Vectrax Bait Stations. To apply Vectrax within bait stations, the formulation—again, previously shaken or stirred—is loaded into a reservoir that provides the target insects with easy access to the attractant material, similar to a hummingbird feeder. […] In order to maintain maximum A&K efficiency, the toxicant component should be blended into the Vectrax attractant formulation as close to the time of application as possible. The attractant or A&K formulation may be loaded into the bait station in amounts ranging from a few grams to several liters, depending on the desired field life. If desired, a sponge or other absorbent material may be applied with the formulation, to facilitate landing by the mosquitoes. As with Vectrax-baited traps, Vectrax bait stations may be deployed singly, as a means to divert or attract and kill mosquitoes in sensitive environments (i.e., rural residences, backyards, recreational activity sites), or as part of a mosquito management strategy, placed at whatever locations and whatever density is thought to be required.

Compound	flies selecting the untreated over the treated chamber (repellency) (Phlebotomus dubosqui)	efficacy as insecticide blended into Vectrax attract and kill bait (mosquitoes)
CCN(CC)C(=O)c1cccc(C)c1 [DEET, N, N-diethyl-meta-toluamide]	79%	
CNC(=O)c1cc(C#N)cc(C)c1NC(=O)c1cc(Br)nn1-c1ncccc1Cl [cyazypyr]		quite effective
